The values below are quoted from earlier work in patent EP2077109A1, “AMIDE COMPOUND, SALT THEREOF, AND BIOFILM REMOVER USING THEM” (The University of Tokyo, priority 2006, dated 2008).

The subject of the series is autoinducer. The settings on record: statement taken from Patent Document 1 (JP 2006-512290).

Take `CCCCCCCCCC(=O)CC(=O)NN1CCCCC1`: the autoinducer agonist activity result is “exhibits autoinducer agonist activity”.
